Source: patent US6946446B2, “Anti-infective agents useful against multidrug-resistant strains of bacteria” (Abbott Laboratories, priority 2000, dated 2005)
In brackets after ≈: the same amount, converted by molar mass.

Columns and labels:
[1] = tested on: Resistant Staphylococcus aureus 1775; test: In vitro antibacterial activity, agar dilution MIC; format: cell-based; conditions: BHI agar dilution, 35-37° C., 20 to 24 hours
Procedure: (§1) Representative compounds of the present invention were assayed in vitro for antibacterial activity as follows: Petri dishes containing successive aqueous dilutions of the test compound mixed with 10 mL of sterilized Brain Heart Infusion (BHI) agar (Difco 0418-01-5) were prepared. Each plate was inoculated with 1:100 dilutions of a different microorganism, using a Steers replicator block. The inoculated plates were incubated at 35-37° C. for 20 to 24 hours. In addition, a control plate, using BHI agar containing no test compound, was prepared and incubated at the beginning and end of each test.
(§2) An additional plate containing a compound having known susceptibility patterns for the organisms being tested and belonging to the same antibiotic class as the test compound was also prepared and incubated as a further control, as well as to provide test-to-test comparability. Erythromycin A was used for this purpose.
(§3) After incubation, each plate was visually inspected. The minimum inhibitory concentration (MIC) was defined as the lowest concentration of drug yielding no growth, a slight haze, or sparsely isolated colonies on the inoculum spot as compared to the growth control.

S. aureus A-5278 = test: In vitro antibacterial activity, agar dilution MIC; format: cell-based, Staphylococcus aureus; conditions: BHI agar dilution, 35-37° C., 20 to 24 hours
Procedure: as §1, §2, §3

**Q.** `CCC1OC(=O)C(C)C(OC2CC(C)(OC)C(O)C(C)O2)C(C)C(OC2OC(C)CC(N(C)C)C2O)C(C)(OCc2cccc(I)c2)CC(C)C(=NO)C(C)C(O)C1(C)O` (stereo not shown) [Ex. 12, 6-O-[(3-Iodo)benzyl]-9-oxime Erythromycin A] was tested. Which “MIC S. aureus 1775” value [1] did it give?
**A.** 25 µg/mL (≈ 25.9 µM)

**Q.** And the “MIC S. aureus A-5278” value (S. aureus A-5278)?
**A.** 25 µg/mL (≈ 25.9 µM)

**Q.** Which results are given for `CC[C@H]1OC(=O)[C@H](C)[C@@H](O[C@H]2C[C@@](C)(OC)[C@@H](O)[C@H](C)O2)[C@H](C)[C@@H](O[C@@H]2O[C@H](C)C[C@H](N(C)C)[C@H]2O)[C@](C)(O)C[C@@H](C)C(=O)[C@H](C)[C@@H](O)[C@]1(C)O` [Erythromycin, Erythromycin A, reference compound]?
**A.** MIC S. aureus 1775 [1]: >100 µg/mL; MIC S. aureus A-5278 (S. aureus A-5278): >100 µg/mL

**Q.** Which results are given for `COc1cccc(OC)c1C(=O)N[C@@H]1C(=O)N2[C@@H]1SC(C)(C)[C@@H]2C(=O)O` [Methicillin, reference compound]?
**A.** MIC ([1]; Staphylococcus aureus, read-out: MIC S. aureus 1775): > 100 µg/mL; MIC (S. aureus A-5278; Staphylococcus aureus, A5278): > 100 µg/mL

**Q.** With `CCON=C1C(C)CC(C)(OCC=Cc2cnc3ccccc3c2)C(OC2OC(C)CC(N(C)C)C2O)C(C)C(=O)C(C)C(=O)OC(CC)C(C)(O)C(O)C1C` (stereo not shown) [Ex. 1, 6-O-[3-(3-quinolyl)-2-propen-1-yl]-3-descladinose-3-oxo-9-[(O-ethyl)oxime] Erythromycin A] as the compound, how does the “MIC S. aureus 1775” value [1] read?
**A.** 12.5 µg/mL (≈ 15.9 µM)

**Q.** What about the “MIC S. aureus A-5278” value (S. aureus A-5278) of the same compound?
**A.** 25 µg/mL (≈ 31.9 µM)

**Q.** What does the source list for `CCC1OC(=O)C(C)C(OC2CC(C)(OC)C(O)C(C)O2)C(C)C(OC2OC(C)CC(N(C)C)C2O)C(C)(OCc2ccc(-c3ccccc3)cc2)CC(C)C(=NO)C(C)C(O)C1(C)O` (stereo not shown) [Ex. 13, 6-O-[(4-Phenyl)benzyl]-9-oxime Erythromycin A]?
**A.** MIC S. aureus 1775 [1]: 25 µg/mL (≈ 27.3 µM); MIC S. aureus A-5278 (S. aureus A-5278): 50 µg/mL (≈ 54.6 µM)
